For one compound, IC50 results are on record in ChEMBL document CHEMBL1149007, “The Ichthyotoxic Principles of Zanthoxylum clava-herculis” (J Nat Prod, 1986).

The test deals with Pimephales promelas. The test can be described thus: Ichthyotoxicity in Pimephales promelas assessed as mortality measured every 30 mins for 2 hrs. Format: organism-based.

A word on the IC50: it is the concentration needed to halve the response being measured. Take `CC(=O)N1CCc2cc3c(c4c2[C@H]1Cc1ccccc1-4)OCO3`: the IC50 was determined as 300 µM.
